ChEMBL document CHEMBL1152072, “Synthesis and structure-activity relationships of novel antiseptics” (1997)

What was measured:
Format in all cases: functional
Burkholderia cepacia = experiment: Antibacterial activity against Burkholderia cepacia 10 after 3 mins.
Enterococcus faecalis [1] = experiment: Antibacterial activity against Enterococcus faecalis IFO 12580 after 30 seconds
Escherichia coli [2] = experiment: Antibacterial activity against Escherichia coil NIHJ JC-2 after 30 seconds
Escherichia coli [3] = experiment: Antibacterial activity against Escherichia coli after 3 mins.
Pseudomonas aeruginosa [4] = experiment: Antibacterial activity against Pseudomonas aeruginosa ATCC 10145 after 3 mins.
Pseudomonas aeruginosa [5] = experiment: Antibacterial activity against Pseudomonas aeruginosa ATCC 10145 after 30 seconds
Serratia marcescens [6] = experiment: Antibacterial activity against Serratia marcescens IFO 12648 after 30 seconds
Staphylococcus aureus [7] = experiment: Antibacterial activity against Staphylococcus aureus FDA 209P after 30 seconds
Staphylococcus aureus [8] = experiment: Antibacterial activity against Staphylococcus aureus after 3 mins.
[9] = tested on: Staphylococcus epidermidis; experiment: Antibacterial activity against Staphylococcus epidermidis ATCC 12228 after 30 seconds
Staphylococcus aureus [10] = experiment: Antibacterial activity against methicillin-resistant Staphylococcus aureus 57 after 3 mins.
Enterococcus faecalis [11] = experiment: Antibacterial activity against Enterococcus faecalis IFO 12580
Escherichia coli [12] = experiment: Antibacterial activity against Escherichia coli NIHJ JC-2,after 30 seconds
Serratia marcescens [13] = experiment: Antibacterial activity against Serratia marcescens IFO 12648,after 30 seconds
Staphylococcus aureus [14] = experiment: Antibacterial activity against Staphylococcus aureus after 30 seconds

| SMILES | Activity (Burkholderia cepacia) | Activity (Escherichia coli [3]) | Activity (Pseudomonas aeruginosa [4]) | Activity (Staphylococcus aureus [8]) | further results |
| --- | --- | --- | --- | --- | --- |
| CCCCCCCC/N=C(N)/N=C(\N)NCc1ccc(Cl)c(Cl)c1.Cl | <=10 ug ml-1 | <=10 ug ml-1 | <=10 ug ml-1 | <=10 ug ml-1 | Activity (Enterococcus faecalis [1]): 10 µg/mL; Activity (Escherichia coli [2]): 20 µg/mL; Activity (Pseudomonas aeruginosa [5]): 10 µg/mL; Activity (Serratia marcescens [6]): 20 µg/mL; Activity (Staphylococcus aureus [7]): 20 µg/mL; Activity [9]: 5 µg/mL |
| CCCCCCCC/N=C(N)/N=C(\N)Nc1ccc(Cl)c(Cl)c1.Cl |  | 50 µg/mL | 50 µg/mL | 50 µg/mL |  |
| CCCCCCCCCC/N=C(N)/N=C(\N)Nc1ccc(Cl)c(Cl)c1.Cl | 100 µg/mL | 20 µg/mL | 100 µg/mL | 100 µg/mL |  |
| Cl.N=C(NCc1ccc(Cl)c(Cl)c1)NC(=N)Nc1ccc(Br)cc1 | 20 µg/mL | <=10 ug ml-1 | 20 µg/mL | 20 µg/mL |  |
| CCCCCC/N=C(N)/N=C(\N)NCc1ccc(Cl)c(Cl)c1.Cl | 100 µg/mL | 50 µg/mL | 50 µg/mL | 50 µg/mL |  |
| CCCCCC/N=C(N)/N=C(\N)Nc1ccc(Cl)cc1.Cl | 100 µg/mL | 100 µg/mL | 20 µg/mL | 500 µg/mL |  |
| Cl.N=C(NCc1ccc(Cl)c(Cl)c1)NC(=N)Nc1ccc(Cl)c(Cl)c1Cl | <=10 ug ml-1 | <=10 ug ml-1 | <=10 ug ml-1 | <=10 ug ml-1 |  |
| CCCCCC/N=C(N)/N=C(\N)NCc1ccc(Cl)cc1.Cl | 100 µg/mL | 100 µg/mL | 50 µg/mL | >100 µg/mL |  |
| Cl.N=C(NCc1ccc(Cl)c(Cl)c1)NC(=N)Nc1ccc(I)cc1 | <=10 ug ml-1 | <=10 ug ml-1 | <=10 ug ml-1 | 20 µg/mL |  |
| Cl.N=C(NCc1ccc(Cl)c(Cl)c1)NC(=N)Nc1ccc(Cl)c(Cl)c1 |  | 10 µg/mL | 10 µg/mL | 50 µg/mL |  |
| CCCCCC/N=C(N)/N=C(\N)Nc1ccc(Cl)c(Cl)c1.Cl | 20 µg/mL | 20 µg/mL | 20 µg/mL | 100 µg/mL |  |
| Cc1ccc(NC(=N)/N=C(\N)NCc2ccc(Cl)c(Cl)c2)cc1C.Cl | 20 µg/mL | <=10 ug ml-1 | <=10 ug ml-1 | 20 µg/mL |  |
| CCCCCCCCCC/N=C(N)/N=C(\N)NCc1ccc(Cl)c(Cl)c1.Cl | 100 µg/mL | <=10 ug ml-1 | 100 µg/mL | 50 µg/mL |  |
| Cl.N=C(NCc1ccc(Cl)c(Cl)c1)NC(=N)Nc1ccc(Cl)cc1Cl | <=10 ug ml-1 | <=10 ug ml-1 | <=10 ug ml-1 | 20 µg/mL |  |
| Cl.N=C(NCc1ccc(Cl)c(Cl)c1)NC(=N)Nc1ccc(Cl)cc1 |  | 50 µg/mL | 50 µg/mL | 50 µg/mL | Activity (Staphylococcus aureus [10]): 100 µg/mL |
| CCCCCCCCCCCC/N=C(N)/N=C(\N)NCc1ccc(Cl)c(Cl)c1.Cl | >500 µg/mL | 20 µg/mL | 100 µg/mL | 100 µg/mL |  |
| CCCCCCCCCCCC/N=C(N)/N=C(\N)Nc1ccc(Cl)c(Cl)c1.Cl | >500 µg/mL | 20 µg/mL | 20 µg/mL | 100 µg/mL |  |
| N=C(NCCCCCCNC(=N)NC(=N)Nc1ccc(Cl)cc1)NC(=N)Nc1ccc(Cl)cc1 [CHLORHEXIDINE] | >500 µg/mL | 20 µg/mL | 100 µg/mL | 100 µg/mL | Activity (Enterococcus faecalis [11]): >160 µg/mL; Activity (Escherichia coli [12]): 80 µg/mL; Activity (Pseudomonas aeruginosa [5]): 160 µg/mL; Activity (Serratia marcescens [13]): 40 µg/mL; Activity (Staphylococcus aureus [14]): >160 µg/mL; Activity [9]: 40 µg/mL |
